Results: patent US20190241943A1, “RAPID PHENOTYPING AND IDENTIFICATION OF MICROBES FROM A COMPLEX MICROBIAL COMMUNITY” (Duke University, priority 2018, published 2019)

What was measured:
[1] = system: gut bacteria; experiment: Xenobiotic growth screen of gut bacteria for beta-glucuronidases in droplets; format: cell-based, human gut bacteria; conditions: defined media, glucose positive control, water negative control (FIG. 6)
Excerpt: Thus, in certain aspects of this disclosure, the methods of the invention can be used to identify or screen bacteria from the gut that can utilize, and thus inactivate, specific xenobiotic compounds. In certain embodiments of this aspect, the methods of the invention can be used to screen gut bacteria for beta-glucuronidases, which are present in bacteria that can inactivate certain man-made therapeutics. […] (FIG. 6). […] Thus, in some embodiments, the present disclosure provides for identification of bacterial taxa that contain putative beta-glucuronidases. Using the method disclosed herein, bacteria are isolated by encapsulation in droplets of defined media with or without a specific xenobiotic. DNA is sampled from the encapsulated droplets at one or more set time points during incubation, and absolute growth is then computed as previously disclosed herein. […] To determine gut bacterial strain response to xenobiotics, gut bacteria were screened for beta-glucuronidases, which are present in bacteria that can inactivate certain man-made therapeutics. […] (FIG. 6). […] Thus, the assay identified bacterial taxa that contain putative beta-glucuronidases. Glucose and water are positive and negative controls, respectively. (FIG. 6).

[2] = system: B. thetaiotamicron (ATCC strain 29148); experiment: Droplet monoculture growth on different carbon sources in defined medium (MicDrop); format: cell-based, Bacteroides thetaiotaomicron; conditions: for growth of the isolate in droplets compared to control defined medium without carbon source: B. theta isolate, defined medium with a single carbon source, endpoint DNA quantity (FIG. 4); for growth in droplets on carbohydrate (growth / no growth): B. thetaiotaomicron ATCC 29148 in microfluidic droplets, consistent with 96-well plates (FIG. 4)
Method: By using a defined media, a function of individual bacteria (in this case growth on a substrate of interest) can be determined. Bacteria were isolated from a fecal community of a healthy donor and cultured in defined medium. To identify carbon sources on which an individual isolated bacterium can grow, carbon sources of varying complexity were added individually to the defined media. Growth was measured at the endpoint, and the DNA was extracted, sequenced and quantified by qPCR as provided in Example 2. In this assay, the endpoint growth of an individual bacteria cultured in a defined medium with the addition of one carbon source was compared to the end point growth measurement of the same bacteria in the defined medium with only the addition of water. (FIG. 4). This comparison enables assessing the ability of an individual microbe to use a single carbon source for growth. As an example in FIG. 4, an isolate of the bacterial strain B. thetaiotamicron (ATCC® strain 29148) was cultured in droplets with defined medium containing the carbon source Pullalan, Levan, Lamanarin or no carbon source (control), and growth was compared. (FIG. 4). […] (FIG. 4). […] (FIG. 5).
(A) Microbial communities isolated from human stool samples were examined for carbon consumption in a custom microfluidic screen. Cells were restarted from frozen stock in mGAM (as above) and then minimal medium containing glucose and galactose (SIGMA®) as the sole carbon sources. Following determination of the loading concentration, the cell culture stocks were washed twice by centrifugation and resuspended in 2× minimal medium. Cells were filtered using a 50 μm filter (CELLTRICS®, SYSMEX®) to remove multi-cell clumps. The filtered cells suspension was then added to each sample formulation at the target concentration. Each sample was a 50:50 mixture of 1% carbon solution and 2× minimal medium. To prevent chip fouling, the oil inlet was equipped with 10 μm inline filters (P-276, IDEX®). Droplet generation in the anaerobic chamber was monitored using a bright field microscope (44347, CELESTRON®). Droplet cultures were stored 5 mL polypropylene tubes (352063, FALCON®) with the caps closed in an anaerobic incubator at 37° C. Following the second day of incubation, cultures were moved to a −20° C. freezer for storage prior to DNA extraction. Pre-processing of the droplet data designated samples with qPCR values below the mean no-carbon control as zero growth. Then, relative abundance data was converted to absolute abundance by multiplying each sample by the corresponding qPCR value. The median was then calculated across three replicate samples and matched no-carbon controls were subtracted from each sample. Finally, a growth threshold of 88% of maximum growth was applied, as determined from validation analysis (FIG. 15, Validation of prebiotic utilization assays)
To test whether the MicDrop method could be used to assay bacterial prebiotic metabolism (FIG. 12A), a previously characterized type strain Bacteroides thetaiotaomicron ATCC 29148 was loaded into microfluidic droplets and standard 96-well plates. Consistent with both prior studies and well-plate experiments disclosed herein, B. thetaiotaomicron ATCC 29148 grew in droplets on pullulan and levan, but not on lamanarin or a no carbohydrate control (FIG. 4). […] Using 96-well plate experiments as a reference (FIG. 12B, FIG. 18), the accuracy of the MicDrop prebiotic assay was determined to be 87% (Table 8). […]

Molecule	bacterial growth on substrate [1]	growth of the isolate in droplets compared to control defined medium without carbon source [2]	growth in droplets on carbohydrate (growth / no growth) [2]
O=C(O)[C@H]1O[C@@H](Oc2ccc([N+](=O)[O-])cc2)[C@H](O)[C@@H](O)[C@@H]1O [PNPG, 4-Nitrophenyl-Beta-D-glucuronic acid, reference compound]	bacterial growth		
O=C[C@H](O)[C@@H](O)[C@H](O)[C@H](O)C(=O)O [glucuronic acid]	bacterial growth		
lamanarin		the same or slightly worse	
levan		greater growth	grew
pullulan [Pullalan]		greater growth	grew
